Data from patent US20230175033A1, “PRODUCTION OF JASMONATES IN FILAMENTOUS FUNGI” (Sumitomo Chemical Company, Limited, priority 2020, published 2023).
Where two headings read alike, the source gives them in different places.

What was measured:
[1] = test system: Lasiodiplodia iranensis DWH-2; assay: JA production by Lasiodiplodia iranensis cultures under shaking conditions, JA content by HPLC; format: cell-based
[2] = test system: Lasiodiplodia iranensis DWH-2; assay: Morphology of Lasiodiplodia iranensis cultures under shaking conditions; format: cell-based; settings: shaking 250 rpm, 30° C.
[3] = shaker 250 rpm, 30° C., eight days, 200 mg/L IAA and sodium butyrate, 100 mg/L SA and ASA, 10 mg/L VA, 2 mM H2O2

| Compound | Titer (mg/L), production of JA with a jasmonate production elicitor [1, 3] | other results |
| --- | --- | --- |
| CC(=O)Oc1ccccc1C(=O)O [ASA, acetylsalicylic acid] | 100 mg/L | – |
| OO [H2O2, hydrogen peroxide] | 160 mg/L | – |
| O=C([O-])Cc1c[nH]c2ccccc12.[Na+] [IAA, Indole-3-acetic acid sodium salt] | 400 mg/L | – |
| O=C([O-])c1ccccc1O.[Na+] [SA, salicylic acid sodium salt] | – | Titer (mg/L), production of JA with a jasmonate production elicitor [1]: 150 mg/L |
| CCCC(=O)[O-].[Na+] [Sodium butyrate, sodium butyrate] | – | Titer (mg/L), production of JA with a jasmonate production elicitor [1]: 175 mg/L |
| CCCC(CCC)C(=O)[O-].[Na+] [VA, valproic acid sodium salt] | 350 mg/L | – |
| CC(C)=CCCC(C)=CCCC(C)=CCO [farnesol] | – | effect on fungal morphology ([2]; 100 mg/L farnesol, nine days): induced mycelial aggregation |
| OCCc1ccc(O)cc1 [tyrosol] | – | effect on fungal morphology ([2]; 100 mg/L tyrosol, seven days): induced mycelial aggregation |
